Source: US5624957A, “Rary-specific retinobenzoic acid derivatives” (Bristol-Myers Squibb Company, priority 1995, dated 1997)

What was measured:
[1] = rat, in vivo, po, 150 mg/kg
From the text: Compounds having the beneficial pharmacological effects of retinoids but without retinoid-induced hypertriglyceridemia would be especially desirable for oral retinoid therapy.

[2] = systemic use; cited from earlier work
Rhino Mouse Utriculi = assay: Rhino mouse model, reduction of utriculi (comedolytic activity); assay type: in vivo; settings: for ED30 (the concentration producing a 30% reduction in the rhino mouse utriculi): interpolation of regression lines of log concentration-percent reduction plots
Description: When representative compounds of the present invention were tested using that same procedure, the ED30 (the concentration producing a 30% reduction in the rhino mouse utriculi) values calculated by interpolation of the regression lines of the log concentration-percent reduction plots were as follows: […]

RARγ = target: T1, RARγ (Homo sapiens, UniProt P13631); assay: Receptor transactivation assay, RARγ (CAT reporter, HeLa cells); assay type: cell-based
T1 construct: expressed in transfected cells; host or cells: HeLa
T1 sequence (P13631 1-454): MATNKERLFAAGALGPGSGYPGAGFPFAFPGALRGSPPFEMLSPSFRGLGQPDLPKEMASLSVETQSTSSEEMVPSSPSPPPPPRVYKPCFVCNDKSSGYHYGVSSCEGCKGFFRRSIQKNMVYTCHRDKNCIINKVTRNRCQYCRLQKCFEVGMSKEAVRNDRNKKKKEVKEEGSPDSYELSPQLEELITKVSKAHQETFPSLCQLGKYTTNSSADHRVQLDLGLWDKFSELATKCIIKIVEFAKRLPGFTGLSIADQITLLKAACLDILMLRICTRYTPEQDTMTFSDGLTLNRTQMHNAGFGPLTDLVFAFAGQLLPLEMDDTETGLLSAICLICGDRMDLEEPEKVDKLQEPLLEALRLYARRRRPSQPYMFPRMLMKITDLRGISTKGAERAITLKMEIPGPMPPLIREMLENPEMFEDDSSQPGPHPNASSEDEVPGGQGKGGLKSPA
Description: (§1) Activation of just one receptor and failure to activate another is the basis for selectivity/specificity.
(§2) In the retinoid transactivation assay, HeLa cells are co-transfected with DNA encoding RAR α, β, or γ, and an RAR-responsive CAT (chloramphenicol acetyltransferase) reporter gene. Retinoid efficacy is measured by the concentration of induced CAT gene product as determined by ELISA assay. […] The mean EC50 value for each of the receptors is calculated using a computer generated induced-fit program.

RARα = target: T2, RARα (Homo sapiens, UniProt P10276); assay: Receptor transactivation assay, RARα (CAT reporter, HeLa cells); assay type: cell-based
T2 construct: expressed in transfected cells; host or cells: HeLa
T2 sequence (P10276 1-462): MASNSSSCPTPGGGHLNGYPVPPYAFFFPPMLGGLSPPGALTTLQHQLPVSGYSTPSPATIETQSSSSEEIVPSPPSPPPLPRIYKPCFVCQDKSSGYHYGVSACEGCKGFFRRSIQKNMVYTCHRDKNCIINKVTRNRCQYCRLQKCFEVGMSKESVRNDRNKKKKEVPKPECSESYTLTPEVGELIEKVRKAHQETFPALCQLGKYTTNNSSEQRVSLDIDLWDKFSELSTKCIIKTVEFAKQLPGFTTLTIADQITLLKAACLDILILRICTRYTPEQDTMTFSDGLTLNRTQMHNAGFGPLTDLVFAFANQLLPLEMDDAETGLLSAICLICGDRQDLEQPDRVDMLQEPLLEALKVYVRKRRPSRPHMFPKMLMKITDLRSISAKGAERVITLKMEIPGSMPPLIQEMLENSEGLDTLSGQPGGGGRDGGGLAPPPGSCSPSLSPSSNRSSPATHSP
Description: as §1, §2

RARβ = target: T3, RARβ (Homo sapiens, UniProt P10826); assay: Receptor transactivation assay, RARβ (CAT reporter, HeLa cells); assay type: cell-based
T3 construct: expressed in transfected cells; host or cells: HeLa
T3 sequence (P10826 1-448 isoform P10826-2): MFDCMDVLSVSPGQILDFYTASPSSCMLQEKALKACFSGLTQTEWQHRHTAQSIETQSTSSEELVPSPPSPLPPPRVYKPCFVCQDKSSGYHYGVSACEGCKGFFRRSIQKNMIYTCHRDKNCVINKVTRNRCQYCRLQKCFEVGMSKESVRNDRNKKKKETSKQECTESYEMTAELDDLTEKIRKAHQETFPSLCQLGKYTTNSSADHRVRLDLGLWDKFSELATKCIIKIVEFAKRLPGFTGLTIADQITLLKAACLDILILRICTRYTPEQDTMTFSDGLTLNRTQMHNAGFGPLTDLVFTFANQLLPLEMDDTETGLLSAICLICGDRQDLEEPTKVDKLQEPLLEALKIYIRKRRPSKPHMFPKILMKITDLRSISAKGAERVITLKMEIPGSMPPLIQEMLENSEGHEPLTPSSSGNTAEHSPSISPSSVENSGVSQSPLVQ
Description: as §1, §2

RAR α, β, or γ = assay: Receptor transactivation assay, RAR subtypes taken together; assay type: cell-based; settings: read-out: EC50 for retinoic acid; varies for given receptors; usually in this range
From the text: Activation of just one receptor and failure to activate another is the basis for selectivity/specificity. In our definitions, "selectivity" means that the compound preferentially activates one receptor but also activates at least one other at a higher concentration and "specificity" means that the compound activates only one receptor in the concentration range tested. The details of the receptor-based transactivation assay are disclosed in the literature, e.g. see Nature 1988, 332, 850-853.
In the retinoid transactivation assay, HeLa cells are co-transfected with DNA encoding RAR α, β, or γ, and an RAR-responsive CAT (chloramphenicol acetyltransferase) reporter gene. Retinoid efficacy is measured by the concentration of induced CAT gene product as determined by ELISA assay. Retinoic acid (RA) is used as a reference compound. […] The mean EC50 value for each of the receptors is calculated using a computer generated induced-fit program.
"N.A." means that the compound had no transactivation at any dose tested (up to 10^-6 M).

CC1=C(/C=C/C(C)=C/C=C/C(C)=C\C(=O)O)C(C)(C)CCC1 [13-cis-retinoic acid]
Increase in serum triglyceride levels [1]: ~ 350%

CC1(C)CCC(C)(C)c2cc(C(O)C(=O)Nc3ccc(C(=O)O)cc3F)ccc21 (stereo not shown) [Example 1, 3-Fluoro-4(2'(5",6",7",8"-tetrahydro-5",5",8",8"-tetramethyl-2"-naphthyl)-2'-hydroxy)acetamidobenzoic acid]
ED30 (the concentration producing a 30% reduction in the rhino mouse utriculi) (Rhino Mouse Utriculi): 155 µM

CC1(C)CCC(C)(C)c2cc(C(O)C(=O)Nc3ccc(C(=O)O)cc3)ccc21 (stereo not shown) [Example 2]
Transactivation ratio γ (EC50 of test compound / EC50 of retinoic acid) (RARγ): 6.7
Transactivation ratio α (EC50 of test compound / EC50 of retinoic acid) (RARα): 66.7
Transactivation ratio β (EC50 of test compound / EC50 of retinoic acid) (RARβ): 50

CC1(C)CCC(C)(C)c2cc(C(O)C(=O)Nc3ccc(C(=O)O)cc3Cl)ccc21 (stereo not shown) [Example 6]
Transactivation ratio γ (EC50 of test compound / EC50 of retinoic acid) (RARγ): 13.3

CC1(C)CCC(C)(C)c2cc(C(O)C(=O)Nc3ccc(C(=O)O)cc3O)ccc21 (stereo not shown) [Example 7]
Reduction in rhino mouse utriculi (Rhino Mouse Utriculi; at 16.5 mM): 32%
Transactivation ratio γ (EC50 of test compound / EC50 of retinoic acid) (RARγ): 40

Cc1cc(C(=O)O)ccc1NC(=O)C(O)c1ccc2c(c1)C(C)(C)CCC2(C)C (stereo not shown) [Example 8]
ED30 (the concentration producing a 30% reduction in the rhino mouse utriculi) (Rhino Mouse Utriculi): 1050 µM
Transactivation ratio γ (EC50 of test compound / EC50 of retinoic acid) (RARγ): 66.7
